Source: patent US20240130368A1, “HERBICIDAL COMPOSITION” (Nippon Soda Co., Ltd., priority 2021, published 2024)
Read-outs that look alike come from different tables or passages of the source.

Tested on: Ambrosia artemisiifolia
Experiment: Test Example 1: seeds on filter paper moistened with chemical solution, herbicidal effect visually evaluated
Type: in vivo
Conditions: visually evaluated 6 days after treatment
Method: As the compound (1), 1-methoxy-3-methyl-6-(1,1-dioxido-8-(trifluoromethyl)thiochroman-5-yl)-7-oxa-3,4-diazabicyclo[4.1.0]hept-4-en-2-one (Compound (I-3)) was used.
The compound (I) or compound (II) was prepared into a 5% emulsion using DMF (containing 1.5% Tween) and diluted with water to a prescribed dosage concentration. Commercially available preparations were dissolved in water and adjusted to a prescribed dosage concentration.
Seeds were soaked in 0.6% sodium hypochlorite for a predetermined time for surface sterilization and washed with water for use (seed disinfection). Seeds of Ambrosia artemisiifolia were used for the test.
Filter paper was placed on a cup (diameter: 10 cm, height: 4 cm) with a lid and moistened with 8 ml of chemical solution, and seeds were sown thereon, and after covering with a lid, grown in a constant temperature room.
The herbicidal effects were visually evaluated, 6 days after the treatment, as the herbicidal effect (%), by comparing with a state of an untreated group using a total of 21 scores of withering index from 0 to 20 (0: mortality rate equivalent to that of the untreated group, 20: mortality rate of 100%).
In addition, the expected values of the herbicidal effects were calculated from the herbicidal effects in a case where the compound (I) alone was applied and the herbicidal effects in a case where the compound (II) alone was applied by using the Colby's formula (Colby, S. R., Calculating synergistic and antagonistic responses of herbicide combinations, Weeds, 15, pp. 20-22 (1967)).
M indicates an herbicidal effect (%) in the application of the compound (I) alone, N indicates an herbicidal effect (%) in the application of the compound (II) alone, and E indicates an expected value (%) of the herbicidal effect in the combined application of the compound (T) and the compound (TT). When the actual measured value (%) of the herbicidal effect in the combined application of the compound (I) and the compound (II) is greater than the expected value E, it can be regarded that the combined application of the compound (I) and the compound (II) has a synergistic effect.

[1] = compound applied alone, amount of active ingredient 0.8 ppm
[2] = Ambrosia artemisiifolia, 144 h, applied alone, amount of active ingredient 0.8 ppm, read-out: Herbicidal effect (%)
[3] = Ambrosia artemisiifolia, 144 h, compound applied alone, amount of active ingredient 0.2 ppm, read-out: Herbicidal effect (%)
[4] = Ambrosia artemisiifolia, 144 h, applied alone, amount of active ingredient 50 ppm, read-out: Herbicidal effect (%)
[5] = Ambrosia artemisiifolia, 144 h, compound applied alone, amount of active ingredient 0.8 ppm, read-out: Herbicidal effect (%)
[6] = Ambrosia artemisiifolia, 144 h, compound applied alone, amount of active ingredient 0.012 ppm
[7] = Ambrosia artemisiifolia, 144 h, read-out: Herbicidal effect (%), applied alone, amount of active ingredient 12.5 ppm
[8] = Ambrosia artemisiifolia, 144 h, compound applied alone, amount of active ingredient 3.1 ppm, read-out: Herbicidal effect (%)
[9] = Ambrosia artemisiifolia, 144 h, applied alone, amount of active ingredient 0.2 ppm, read-out: Herbicidal effect (%)
[10] = applied alone, amount of active ingredient 0.8 ppm
[11] = compound applied alone, amount of active ingredient 0.2 ppm
[12] = compound applied alone, amount of active ingredient 12.5 ppm
[13] = Ambrosia artemisiifolia, 144 h, applied alone, amount of active ingredient 12.5 ppm, read-out: Herbicidal effect (%)

## COC[C@H](C)N(C(=O)CCl)c1c(C)csc1C [Dimethenamid-P]
[1]
  Herbicidal effect (%): 30%

## CCC/C(=N\OCC)C1=C(O)CC(CC(C)SCC)CC1=O (stereo not drawn) [Sethoxydim]
Ambrosia artemisiifolia, 144 h, read-out: Herbicidal effect (%), compound applied alone, amount of active ingredient 0.8 ppm
  pest or weed control at 0.8 ppm: 0%

## CCCN(CCC)C(=O)SCc1ccccc1 [Prosulfocarb]
[2]
  pest or weed control at 0.8 ppm: 20%

## COC(=O)c1c(Cl)nn(C)c1S(=O)(=O)NC(=O)Nc1nc(OC)cc(OC)n1 [Halosulfuron-methyl]
Ambrosia artemisiifolia, 144 h, read-out: Herbicidal effect (%), compound applied alone, amount of active ingredient 0.05 ppm
  pest or weed control at 0.05 ppm: 30%

## CCC(C)(CC)c1cc(NC(=O)c2c(OC)cccc2OC)on1 [Isoxaben]
[3]
  pest or weed control at 0.2 ppm: 75%

## CCNc1nc(Cl)nc(NCC)n1 [Simazine]
[4]
  pest or weed control at 50 ppm: 30%

## CCc1cccc(CC)c1N(COC)C(=O)CCl [Alachlor]
[5]
  pest or weed control at 0.8 ppm: 20%

## NC(=O)c1nc(-c2ccccc2)n(-c2ccc(Cl)c(COCC(F)(F)C(F)(F)F)c2)n1 [Flupoxam]
[6]
  pest or weed control at 0.012 ppm: 65%

## CC/C(=N\OC/C=C/Cl)C1=C(O)CC(C2CCOCC2)CC1=O (stereo not drawn) [Tepraloxydim]
Ambrosia artemisiifolia, 144 h, read-out: Herbicidal effect (%), compound applied alone, amount of active ingredient 3.1 ppm
  pest or weed control at 3.1 ppm: 10%

## CON(C)C(=O)Nc1ccc(Cl)c(Cl)c1 [Linuron]
Ambrosia artemisiifolia, 144 h, compound applied alone, amount of active ingredient 12.5 ppm, read-out: Herbicidal effect (%)
  pest or weed control at 12.5 ppm: 10%

## O=C(Nc1ccc(F)cc1F)c1cccnc1Oc1cccc(C(F)(F)F)c1 [Diflufenican]
[3]
  pest or weed control at 0.2 ppm: 10%

## O=C(O)CNCP(=O)(O)O [Glyphosate]
[7]
  pest or weed control at 12.5 ppm: 20%

## CC(C)N(C)S(=O)(=O)NC(=O)c1cc(-n2c(=O)cc(C(F)(F)F)n(C)c2=O)c(F)cc1Cl [Saflufenacil]
Ambrosia artemisiifolia, 144 h, applied alone, amount of active ingredient 0.0125 ppm
  pest or weed control at 0.0125 ppm: 60%

## CN(C)c1nc(=O)n(C2CCCCC2)c(=O)n1C [Hexazinone]
[8]
  pest or weed control at 3.1 ppm: 10%

## COC(=O)C(C)Oc1ccc(Oc2ncc(C(F)(F)F)cc2Cl)cc1 (stereo not drawn) [Haloxyfop-methyl]
[7]
  pest or weed control at 12.5 ppm: 10%

## CCS(=O)(=O)c1cccnc1S(=O)(=O)NC(=O)Nc1nc(OC)cc(OC)n1 [Rimsulfuron]
[9]
  pest or weed control at 0.2 ppm: 20%

## Cc1cc(Cl)ccc1OCC(=O)O [MCPA]
Applied alone, amount of active ingredient 0.2 ppm
  Herbicidal effect (%): 30%

## CCNc1nc(Cl)nc(NC(C)(C)C)n1 [Terbuthylazine]
[4]
  pest or weed control at 50 ppm: 0%

## CCC(CC)Nc1c([N+](=O)[O-])cc(C)c(C)c1[N+](=O)[O-] [Pendimethalin]
[2]
  pest or weed control at 0.8 ppm: 20%

## CCSC(C)CC1CC(=O)C(/C(CC)=N/OC/C=C/Cl)=C(O)C1 (stereo not drawn) [Clethodim]
[7]
  pest or weed control at 12.5 ppm: 0%

## CC1(C)CON(Cc2ccccc2Cl)C1=O [Clomazone]
[9]
  pest or weed control at 0.2 ppm: 10%

## O=C(Nc1ccc(F)cc1)c1cccc(Oc2cccc(C(F)(F)F)c2)n1 [Picolinafen]
Applied alone, amount of active ingredient 3.1 ppm
  Herbicidal effect (%): 30%

## CNC(=O)N(C)c1nnc(C(C)(C)C)s1 [Tebuthiuron]
Ambrosia artemisiifolia, 144 h, read-out: Herbicidal effect (%), compound applied alone, amount of active ingredient 50 ppm
  pest or weed control at 50 ppm: 20%

## COC(=O)c1csc(C)c1S(=O)(=O)NC(=O)n1nc(OC)n(C)c1=O [Thiencarbazone-methyl]
[10]
  Herbicidal effect (%): 30%

## COC(=O)c1nc(-c2ccc(Cl)c(OC)c2F)cc(N)c1Cl [Halauxifen-methyl]
Compound applied alone, amount of active ingredient 0.012 ppm
  Herbicidal effect (%): 70%

## CCc1cccc(C)c1N(C(=O)CCl)C(C)COC (stereo not drawn) [Metolachlor]
[5]
  pest or weed control at 0.8 ppm: 10%

## CCOC(=O)COc1ncccc1Oc1cc(-n2c(=O)cc(C(F)(F)F)n(C)c2=O)c(F)cc1Cl [Epyrifenacil]
Compound applied alone, amount of active ingredient 0.0125 ppm
  Herbicidal effect (%): 80%

## COc1c(Cl)ccc(Cl)c1C(=O)O [Dicamba]
[2]
  pest or weed control at 0.8 ppm: 30%

## CS(=O)(=O)c1ccc(C(=O)C2C(=O)CCCC2=O)c([N+](=O)[O-])c1 [Mesotrione]
[3]
  pest or weed control at 0.2 ppm: 50%

## N#Cc1cc(Br)c(O)c(Br)c1 [Bromoxynil]
Ambrosia artemisiifolia, 144 h, applied alone, amount of active ingredient 3.1 ppm, read-out: Herbicidal effect (%)
  pest or weed control at 3.1 ppm: 0%

## S-metolachlor
[1]
  Herbicidal effect (%): 20%

## CS(=O)(=O)c1cc(C(F)(F)F)ccc1C(=O)c1cnoc1C1CC1 [Isoxaflutole]
Ambrosia artemisiifolia, 144 h, compound applied alone, amount of active ingredient 0.0125 ppm
  pest or weed control at 0.0125 ppm: 40%

## Cc1ccc(NC(=O)N(C)C)cc1Cl [Chlorotoluron]
[4]
  pest or weed control at 50 ppm: 40%

## COc1cc(OC)nc(NC(=O)NS(=O)(=O)c2cc(NC=O)ccc2C(=O)N(C)C)n1 [Foramsulfuron]
[2]
  pest or weed control at 0.8 ppm: 65%

## Nc1c([N+](=O)[O-])ccc(Oc2ccccc2)c1Cl [Aclonifen]
Ambrosia artemisiifolia, 144 h, compound applied alone, amount of active ingredient 50 ppm, read-out: Herbicidal effect (%)
  pest or weed control at 50 ppm: 20%

## FC(F)c1cc(-c2c(Cl)cccc2Oc2ncc(Cl)cn2)on1 [Rimisoxafen]
[11]
  Herbicidal effect (%): 25%

## C/C(=N\NC(=O)Nc1cc(F)cc(F)c1)c1ncccc1C(=O)[O-].[Na+] [Diflufenzopyr-sodium]
[12]
  Herbicidal effect (%): 20%

## CC(C)c1nn(C(=O)NC(C)(C)C)c(=O)n1N [Amicarbazone]
Applied alone, amount of active ingredient 50 ppm
  Herbicidal effect (%): 0%

## Cc1ccccc1CO[C@@H]1C[C@@]2(C(C)C)CC[C@]1(C)O2 (racemic) [Cinmethylin]
[8]
  pest or weed control at 3.1 ppm: 50%

## Nc1nc[nH]n1 [Amitrole]
[8]
  pest or weed control at 3.1 ppm: 20%

## COc1cc(OC)nc(NC(=O)NS(=O)(=O)c2ncccc2C(=O)N(C)C)n1 [Nicosulfuron]
[5]
  pest or weed control at 0.8 ppm: 60%

## Cc1ccn2nc(S(=O)(=O)Nc3c(F)cccc3F)nc2n1 [Flumetsulam]
[13]
  pest or weed control at 12.5 ppm: 40%

## Cc1cccc(C2CC2)c1Oc1nnc(Cl)cc1OC(=O)N1CCOCC1 [Cyclopyrimorate]
[12]
  Herbicidal effect (%): 40%

## Nc1c(Cl)c(Cl)nc(C(=O)O)c1Cl [Picloram]
[2]
  pest or weed control at 0.8 ppm: 70%

## CC(C)N1C(=O)c2ccccc2NS1(=O)=O [Bentazon]
Ambrosia artemisiifolia, 144 h, applied alone, amount of active ingredient 200 ppm
  pest or weed control at 200 ppm: 20%

## Nc1c(Cl)c(F)nc(OCC(=O)O)c1Cl [Fluroxypyr]
[2]
  pest or weed control at 0.8 ppm: 40%

## CSc1nnc(C(C)(C)C)c(=O)n1N [Metribuzin]
[4]
  pest or weed control at 50 ppm: 0%

## c1cc[n+]2c(c1)-c1cccc[n+]1CC2 [Diquat]
Ambrosia artemisiifolia, 144 h, read-out: Herbicidal effect (%), compound applied alone, amount of active ingredient 0.2 ppm
  pest or weed control at 0.2 ppm: 30%

## Cc1c(C(=O)c2cnn(C)c2O)ccc(S(C)(=O)=O)c1C1=NOCC1 [Topramezone]
[11]
  Herbicidal effect (%): 40%

## COC(=O)NS(=O)(=O)c1ccc(N)cc1 [Asulam]
[8]
  pest or weed control at 3.1 ppm: 20%

## CCCCC(CC)COC(=O)COc1ccc(Cl)cc1Cl (stereo not drawn) [2,4-D 2-ethylhexyl ester]
[10]
  Herbicidal effect (%): 50%

## CCOC(=O)C(Cl)Cc1cc(-n2nc(C)n(C(F)F)c2=O)c(F)cc1Cl (stereo not drawn) [Carfentrazone-ethyl]
Ambrosia artemisiifolia, 144 h, read-out: Herbicidal effect (%), applied alone, amount of active ingredient 0.8 ppm
  pest or weed control at 0.8 ppm: 50%

## C#CCN1C(=O)COc2cc(F)c(N3C(=O)C4=C(CCCC4)C3=O)cc21 [Flumioxazin]
Ambrosia artemisiifolia, 144 h, applied alone, amount of active ingredient 0.05 ppm, read-out: Herbicidal effect (%)
  pest or weed control at 0.05 ppm: 80%

## CN1C[C@H](c2cccc(C(F)(F)F)c2)[C@@H](C(=O)Nc2ccccc2F)C1=O [Tetflupyrolimet]
Compound applied alone, amount of active ingredient 3.1 ppm
  Herbicidal effect (%): 70%

## CC(C)N(C(=O)SCC(Cl)=C(Cl)Cl)C(C)C [Tri-allate]
[13]
  pest or weed control at 12.5 ppm: 20%

## CCCN(CCC)c1c([N+](=O)[O-])cc(C(F)(F)F)cc1[N+](=O)[O-] [Trifluralin]
[2]
  pest or weed control at 0.8 ppm: 10%

## Cc1nn(-c2cc(NS(C)(=O)=O)c(Cl)cc2Cl)c(=O)n1C(F)F [Sulfentrazone]
[6]
  pest or weed control at 0.012 ppm: 0%
